From patent publication US8580803B2, “Substituted pyrrolo-aminopyrimidine compounds” (ArQule, Inc., priority 2009, dated 2013)

Legend:
AKT1 = AKT1 (Homo sapiens, UniProt P31749); test: AKT Kinase Activity Assay (AlphaScreen, crosstide); conditions: Average of Akt1 biochemical assay
Protocol: AKT1 activity was assayed using the GSK3-derived biotinylated peptide substrate, crosstide (biotin-GRPRTSSFAEG), and AlphaScreen™ (Amplified Luminescent Proximity Homogeneous Assay) technology. AKT1 activation was achieved by the addition of the activating kinases PDK1 and MAPKAPK2, lipid vesicles, and ATP. The extent of peptide phosphorylation was determined using a phospho-AKT substrate antibody and acceptor beads conjugated to Protein A and donor beads conjugated to streptavidin that bind to the biotin on the peptide. Excitation of the donor beads converted ambient oxygen to excited singlet oxygen which, when in close proximity to acceptor beads, reacted with acceptor beads resulting in signal amplification.
Test inhibitors and controls (Abbott inhibitor, Merck pre-clinical inhibitor, and Merck clinical inhibitor) were prepared in 10% DMSO at 10-fold the desired final concentration, and added to each well of a reaction plate (Corning 96-well half-area solid white nonbinding surface plate) in a volume of 2.5 μL. […] After a 20 minute pre-incubation at room temperature, the kinase reaction was initiated by the addition of 5 μL of an activation mixture diluted in assay buffer containing biotinylated crosstide, PDK1, MAPKAPK2, DOPS/DOPC, PtdIns(3,4,5)P3, and ATP for final concentrations of 60 nM biotinylated crosstide, 0.1 nM PDK1, 0.7 nM MK2, 5.5 μM DOPS, 5.5 μM DOPC, 0.5 μM PtdIns(3,4,5)P3, and 50 μM ATP. The plates were incubated for 30 minutes at room temperature, and then stopped in the dark by the addition of 10 μL stop/detection mixture prepared in assay buffer containing EDTA, AlphaScreen™ Streptavidin Donor and Protein A Acceptor beads, and phospho-AKT substrate antibody for final concentrations of 10 mM EDTA, 500 ng/well of both AlphaScreen™ Streptavidin Donor beads and Protein A Acceptor beads, and phospho-AKT substrate antibody at a final dilution of 1:350. Assay plates were incubated for 90 minutes at room temperature in the dark, and the plates were read on a Perkin Elmer Envision Multilabel plate reader ([…]).

ACK1 (110-489) = biological target: T1, ACK1 (110-489) (Homo sapiens, UniProt Q07912); test: ACK1 Activity Assay (AlphaScreen, PYK2-derived peptide); type: biochemical
T1 construct: ACK1 110-489 (12.5 μl) were added to each well
Protocol: The extent of peptide phosphorylation was determined by using acceptor beads conjugated to phosphotyrosine antibody that recognizes the phosphorylated peptide and donor beads conjugated to streptavidin that binds to the biotin on the peptide. Excitation of the donor beads converted ambient oxygen to excited singlet oxygen which when in close proximity to acceptor beads, reacted with acceptor beads where the signal was amplified.
Test inhibitors and controls (N-(2,6-dimethylphenyl)-4-(2-ethoxyphenoxy)-2-[(4-piperazin-1-ylphenyl)amino]pyrimidine-5-carboxamide) were prepared in 10% DMSO at 10× the desired final concentration. […] After a 20-min incubation at room temperature, the kinase reaction was initiated by the addition of 10 μl of PYK2/ATP mixture. […] The plates were incubated for 60 min at room temperature. The reaction was stopped by the addition of 10 μl stop/detection mixture which contains EDTA (final concentration is 10 mM), AlphaScreen™ Streptavidin Donor beads (final concentration is 500 ng/well) and AlphaScreen™ Phospho-tyrosine (P-Tyr-100) Acceptor beads (final concentration is 500 ng/well) were diluted in assay buffer. This reagent addition step was performed in the dark because the AlphaScreen™ beads are light-sensitive. The plate was incubated for 60 min at room temperature in the dark and the plates were read on the Perkin Elmer Envision Multilabel plate reader ([…]).

AKT1, sequence (P31749 whole entry): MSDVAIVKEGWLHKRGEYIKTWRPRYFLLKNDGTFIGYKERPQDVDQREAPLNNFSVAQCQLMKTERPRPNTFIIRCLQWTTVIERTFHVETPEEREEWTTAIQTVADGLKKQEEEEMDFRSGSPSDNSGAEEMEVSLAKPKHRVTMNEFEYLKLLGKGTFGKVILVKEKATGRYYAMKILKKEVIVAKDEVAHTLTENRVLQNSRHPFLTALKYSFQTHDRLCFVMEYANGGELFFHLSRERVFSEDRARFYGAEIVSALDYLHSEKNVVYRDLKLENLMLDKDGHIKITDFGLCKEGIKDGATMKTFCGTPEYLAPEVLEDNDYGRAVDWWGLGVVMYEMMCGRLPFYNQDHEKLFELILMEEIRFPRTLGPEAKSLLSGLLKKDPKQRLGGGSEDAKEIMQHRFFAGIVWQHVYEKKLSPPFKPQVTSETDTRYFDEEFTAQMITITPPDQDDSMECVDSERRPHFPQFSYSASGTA
T1 sequence (Q07912 110-489, species assumed): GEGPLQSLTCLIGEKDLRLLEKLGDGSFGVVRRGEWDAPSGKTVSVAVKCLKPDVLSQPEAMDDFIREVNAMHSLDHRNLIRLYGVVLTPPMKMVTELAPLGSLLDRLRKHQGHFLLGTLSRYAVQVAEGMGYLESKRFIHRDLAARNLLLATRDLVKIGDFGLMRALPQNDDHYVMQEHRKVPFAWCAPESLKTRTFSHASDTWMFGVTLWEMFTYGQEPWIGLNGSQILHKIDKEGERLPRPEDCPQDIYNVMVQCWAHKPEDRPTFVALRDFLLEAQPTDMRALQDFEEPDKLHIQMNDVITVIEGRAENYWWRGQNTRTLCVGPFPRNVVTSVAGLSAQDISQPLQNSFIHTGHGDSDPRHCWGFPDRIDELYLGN

Structure (SMILES) | IC50 (AKT1) | IC50 (ACK1 (110-489)) | melting point
O=C(NCCCN1CCCC1)c1cccc(Nc2ncnc3[nH]cc(C(=O)c4ccccc4)c23)c1 [3-[(5-benzoyl-7H-pyrrolo[2,3-d]pyrimidin-4-yl)amino]-N-(3-pyrrolidin-1-ylpropyl)benzamide] | 899 nM | 1200 nM | 
CN(C)CCCNC(=O)c1cccc(Nc2ncnc3[nH]cc(C(=O)c4ccccc4)c23)c1 [3-[(5-benzoyl-7H-pyrrolo[2,3-d]pyrimidin-4-yl)amino]-N-[3-(dimethylamino)propyl]benzamide] | 674 nM | 486 nM | 
Nc1cccc(Nc2ncnc3[nH]cc(C(=O)c4ccccc4)c23)c1 [drawing 248, {4-[(3-aminophenyl)amino]-7H-pyrrolo[2,3-d]pyrimidin-5-yl}(phenyl)methanone] | 1250 nM | 415 nM | 
O=C(NCCCCN1CCCC1)c1cccc(Nc2ncnc3[nH]cc(C(=O)c4ccccc4)c23)c1 [3-[(5-benzoyl-7H-pyrrolo[2,3-d]pyrimidin-4-yl)amino]-N-(4-pyrrolidin-1-ylbutyl)benzamide] | 676 nM | 2170 nM | 
CC(=O)Nc1cccc(Nc2ncnc3[nH]cc(C(=O)c4ccccc4)c23)c1 [N-{3-[(5-benzoyl-7H-pyrrolo[2,3-d]pyrimidin-4-yl)amino]phenyl}acetamide] | 2170 nM | 3870 nM | 
O=C(Cc1cncc(Br)c1)Nc1cccc(Nc2ncnc3[nH]cc(C(=O)c4ccccc4)c23)c1 |  |  | > 300 °C
Nc1ccc(Nc2ncnc3[nH]cc(C(=O)c4ccccc4)c23)cc1 [{4-[(4-aminophenyl)amino]-7H-pyrrolo[2,3-d]pyrimidin-5-yl}(phenyl)methanone] | 2570 nM | 338 nM | 
Cn1cc(C(=O)c2ccccc2)c2c(Nc3cccc(N)c3)ncnc21 |  |  | 170 to 173 °C
CC(=O)Nc1cccc(Nc2ncnc3c2c(C(=O)c2ccccc2)cn3C)c1 |  |  | 140 to 142 °C
O=C(Nc1ccccc1)Nc1cccc(Nc2ncnc3[nH]cc(C(=O)c4ccccc4)c23)c1 |  |  | > 300 °C
NCc1ccc(Nc2ncnc3[nH]cc(C(=O)c4ccccc4)c23)cc1 |  |  | 255 to 257 °C
CN1CCC(NC(=O)c2cccc(Nc3ncnc4[nH]cc(C(=O)c5ccccc5)c34)c2)CC1 [3-[(5-benzoyl-7H-pyrrolo[2,3-d]pyrimidin-4-yl)amino]-N-(1-methylpiperidin-4-yl)benzamide] | 1440 nM | 592 nM | 
Nc1cccc(Nc2ncnc3[nH]cc(C(=O)c4ccccc4)c23)n1 |  |  | > 300 °C
O=C(NCC1CCCCC1)Nc1cccc(Nc2ncnc3[nH]cc(C(=O)c4ccccc4)c23)c1 |  |  | 180 to 182 °C
O=C(CCc1cccnc1)Nc1cccc(Nc2ncnc3[nH]cc(C(=O)c4ccccc4)c23)c1 [N-(3-{[5-(phenylcarbonyl)-7H-pyrrolo[2,3-d]pyrimidin-4-yl]amino}phenyl)-3-pyridin-3-ylpropanamide] | 288 nM | 1070 nM | 
NCc1cccc(Nc2ncnc3[nH]cc(C(=O)c4ccccc4)c23)c1 [drawing 278, (4-{[3-(aminomethyl)phenyl]amino}-7H-pyrrolo[2,3-d]pyrimidin-5-yl)(phenyl) methanone] | 186 nM |  | 
O=C(Nc1ccccc1)c1cccc(Nc2ncnc3[nH]cc(C(=O)c4ccccc4)c23)c1 [drawing 239, 3-[(5-benzoyl-7H-pyrrolo[2,3-d]pyrimidin-4-yl)amino]-N-phenylbenzamide] | 1400 nM |  | 
CC(=O)Nc1cccc(Nc2ncnc3[nH]cc(C(=O)c4ccccc4C)c23)c1 |  |  | > 300 °C
Nc1cccc(Nc2ncnc3[nH]cc(C(=O)c4ccccc4)c23)c1 |  |  | 280 to 282 °C
CNC(=O)c1cccc(Nc2ncnc3[nH]cc(C(=O)c4cccc5ccccc45)c23)c1 |  |  | > 300 °C
CC(=O)NCC(=O)Nc1cc(Cl)cc(Nc2ncnc3[nH]cc(C(=O)c4ccccc4)c23)c1 |  |  | > 300 °C

Structure (SMILES) | IC50 (AKT1) | IC50 (ACK1 (110-489)) | melting point
O=C(c1ccccc1)c1c[nH]c2ncnc(Nc3cccc(CCO)c3)c12 |  |  | > 300 °C
Cn1cc(CC(=O)Nc2cccc(Nc3ncnc4[nH]cc(C(=O)c5ccccc5)c34)c2)c2ccccc21 [2-(1-methyl-1H-indol-3-yl)-N-(3-{[5-(phenylcarbonyl)-7H-pyrrolo[2,3-d]pyrimidin-4-yl]amino}phenyl)acetamide] | 3090 nM |  | 
O=C(c1ccccc1)c1c[nH]c2ncnc(Nc3cccc(NC(=O)C4CCCC4)c3)c12 [N-(3-{[5-(phenylcarbonyl)-7H-pyrrolo[2,3-d]pyrimidin-4-yl]amino}phenyl) cyclopentanecarboxamide] | 7010 nM | 19000 nM | 
O=C(O)c1cccc(Nc2ncnc3[nH]cc(C(=O)c4ccccc4)c23)c1 [3-[(5-benzo-7H-pyrrolo[2,3-d]pyrimidin-4-yl)amino]benzoic acid] | 3000 nM | 2190 nM | 
CC(=O)Nc1cccc(Nc2ncnc3c2c(C(=O)c2ccccc2)cn3C)c1 [drawing 273, N-(3-{[7-methyl-5-(phenylcarbonyl)-7H-pyrrolo[2,3-d]pyrimidin-4-yl]amino}phenyl)acetamide] | 2510 nM |  | 
CC(C)(C)NC(=O)Nc1cccc(Nc2ncnc3[nH]cc(C(=O)c4ccccc4)c23)c1 |  |  | 185 to 187 °C
O=C(NCCCN1CCCCC1)c1cccc(Nc2ncnc3[nH]cc(C(=O)c4ccccc4)c23)c1 |  |  | > 300 °C
CC(C)(C)OC(=O)Nc1ccc(Nc2ncnc3[nH]cc(C(=O)c4ccccc4)c23)cc1 |  |  | 274 to 280 °C
O=C(Nc1cccc(Nc2ncnc3[nH]cc(C(=O)c4ccccc4)c23)c1)c1ccc(Cl)cc1 [4-chloro-N-(3-{[5-(phenylcarbonyl)-7H-pyrrolo[2,3-d]pyrimidin-4-yl]amino}phenyl)benzamide] | 5130 nM | 15700 nM | 
CC(=O)NCCC(=O)Nc1cccc(Nc2ncnc3[nH]cc(C(=O)c4ccccc4)c23)c1 [3-acetamido-N-(3-((5-benzoyl-7H-pyrrolo[2,3-d]pyrimidin-4-yl)amino)phenyl)propanamide] | 264 nM | 1340 nM | 
CNC(=O)c1cccc(Nc2ncnc3[nH]cc(C(=O)c4ccccc4C)c23)c1 |  |  | > 300 °C
COC(=O)c1cc(NC(=O)CNC(C)=O)cc(Nc2ncnc3[nH]cc(C(=O)c4ccccc4)c23)c1 |  |  | > 300 °C
CNC(=O)c1cccc(Nc2ncnc3[nH]cc(C(=O)c4cccc(F)c4)c23)c1 |  |  | > 300 °C
NCc1cccc(Nc2ncnc3[nH]cc(C(=O)c4ccccc4)c23)c1 |  |  | 210 to 212 °C
CC(=O)Nc1cccc(Nc2ncnc3[nH]cc(C(=O)c4cccc5ccccc45)c23)c1 |  |  | > 300 °C
CNC(=O)c1cccc(Nc2ncnc3[nH]cc(C(=O)c4ccccc4)c23)c1 [3-((5-benzoyl-7H-pyrrolo[2,3-d]pyrimidin-4-yl)amino)-N-methylbenzamide] | 5120 nM |  | 
NC(=O)CCC(=O)Nc1cccc(Nc2ncnc3[nH]cc(C(=O)c4ccccc4)c23)c1 [N-(3-{[5-(phenylcarbonyl)-7H-pyrrolo[2,3-d]pyrimidin-4-yl]amino}phenyl)butanediamide] | 1210 nM | 876 nM | 
CN(C)CC(=O)Nc1cccc(Nc2ncnc3[nH]cc(C(=O)c4ccccc4)c23)c1 [N,N-dimethyl-N-(3-{[5-(phenylcarbonyl)-7H-pyrrolo[2,3-d]pyrimidin-4-yl]amino}phenyl)glycinamide] | 1120 nM | 672 nM | 
CC(=O)NCC(=O)Nc1cccc(Nc2ncnc3[nH]cc(C(=O)c4ccccc4)c23)c1 [2-acetamido-N-(3-((5-benzoyl-7H-pyrrolo[2,3-d]pyrimidin-4-yl)amino)phenyl)acetamide] | 94.9 nM | 666 nM | 
O=C(Nc1cccc(Nc2ncnc3[nH]cc(C(=O)c4ccccc4)c23)c1)c1ccccc1 |  |  | > 300 °C
